In brackets after ≈: the same amount, converted by molar mass. Entries after “also recorded” stand apart in the source; their conditions may differ. Read-outs that look alike come from different tables or passages of the source. Residues, ends and D or L forms follow the SMILES beside them. No end group written: not given here.
Tests used:
[1] = test system: 19 selected strains of Gram-negative bacteria; type: cell-based; conditions: for antibacterial / bacteriocidal activity (in words): 19 Gram-negative strains; for number of the 19 Gram-negative strains inhibited: peptide at 16 μg/ml (~4 μM)
From the text: FIG. 3. […] FIG. 3A. […] FIG. 3B. […] FIG. 3C. […] FIG. 3D. […] FIG. 3F.

[2] = test system: human red blood cells (hRBCs); conditions: human RBCs
[3] = test system: Toll-like receptor 3 (TLR3); assay: IL-6 ELISA, TLR3 signaling with poly(I:C) in BEAS-2B cells; type: cell-based, human
Protocol: Innate immune signaling by endogenous Toll-like receptor 3 (TLR3) in BEAS-2B cells in response to double-stranded RNA and various bacteriocidal peptides. IL-6 cytokine produced in response to signal transduction by TLR3 and the double-stranded RNA mimic, poly(I:C), was quantified using ELISA. Where present, the peptides were added to the media of BEAS-2B cells to a final concentration of 2 μM. […] All assays were performed in three independent samples and the mean and one standard error is shown above the bars.

Compound	MIC (E. faecalis)	RBC lysis (in words) [2]	enhancement of TLR3 signaling / IL-6 production (in words) [3]	MIC (S. aureus; S. aureus 25923)	MIC (S. aureus; S. aureus 29213)	other results
CC[C@H](C)[C@H](NC(=O)[C@@H](NC(=O)[C@@H]1CCCN1C(=O)[C@H](CO)NC(=O)[C@H](CC(C)C)NC(=O)[C@H](CCCCN)NC(=O)[C@H](CCCCN)NC(=O)[C@H](Cc1ccccc1)NC(=O)[C@H](CC(C)C)NC(=O)[C@H](CCCCN)NC(=O)[C@H](CCCCN)NC(=O)[C@H](Cc1ccccc1)NC(=O)[C@H](CCCCN)NC(=O)[C@H](CCCCN)NC(=O)[C@H](CCCNC(=N)N)NC(=O)[C@H](Cc1ccccc1)NC(=O)[C@H](CCCNC(=N)N)NC(=O)[C@H](CCCCN)NC(=O)[C@H](Cc1ccccc1)NC(=O)[C@H](CCCNC(=N)N)NC(=O)CN)C(C)C)C(=O)N1CCC[C@H]1C(=O)N[C@@H](CC(C)C)C(=O)N[C@@H](CC(C)C)C(=O)N[C@@H](Cc1c[nH]cn1)C(=O)N[C@@H](CC(C)C)C(=O)NCC(=O)O [BMAP-27] (H-GRFKRFRKKFKKLFKKLSPVIPLLHLG-OH; N-terminus and C-terminus assumed)	>32 µg/mL					antibacterial / bacteriocidal activity (in words) [1]: most potent antibacterial activities; also recorded: most effective
CC[C@H](C)[C@H](NC(=O)[C@H](CCCCN)NC(=O)[C@H](CCC(=O)O)NC(=O)[C@H](CCCCN)NC(=O)[C@H](CO)NC(=O)[C@H](CCCCN)NC(=O)[C@H](CCCNC(=N)N)NC(=O)[C@H](Cc1ccccc1)NC(=O)[C@H](Cc1ccccc1)NC(=O)[C@H](CC(=O)O)NC(=O)CNC(=O)[C@H](CC(C)C)NC(=O)[C@@H](N)CC(C)C)C(=O)NCC(=O)N[C@@H](CCCCN)C(=O)N[C@@H](CCC(=O)O)C(=O)N[C@@H](Cc1ccccc1)C(=O)N[C@@H](CCCCN)C(=O)N[C@@H](CCCNC(=N)N)C(=O)N[C@H](C(=O)N[C@H](C(=O)N[C@@H](CCC(N)=O)C(=O)N[C@@H](CCCNC(=N)N)C(=O)N[C@H](C(=O)N[C@@H](CCCCN)C(=O)N[C@@H](CC(=O)O)C(=O)N[C@@H](Cc1ccccc1)C(=O)N[C@@H](CC(C)C)C(=O)N[C@@H](CCCNC(=N)N)C(=O)O)[C@@H](C)CC)C(C)C)[C@@H](C)CC [LL-29] (H-LLGDFFRKSKEKIGKEFKRIVQRIKDFLR-OH)		reduced in RBC lysis; also recorded: did not result in increased lysis of human RBCs				
CC[C@H](C)[C@H](NC(=O)[C@H](CCCCN)NC(=O)[C@H](CCC(=O)O)NC(=O)[C@H](CCCCN)NC(=O)[C@H](CO)NC(=O)[C@H](CCCCN)NC(=O)[C@H](CCCNC(=N)N)NC(=O)[C@H](Cc1ccccc1)NC(=O)[C@H](Cc1ccccc1)NC(=O)[C@H](CC(=O)O)NC(=O)CNC(=O)[C@H](CC(C)C)NC(=O)[C@@H](N)CC(C)C)C(=O)NCC(=O)N[C@@H](CCCCN)C(=O)N[C@@H](CCC(=O)O)C(=O)N[C@@H](Cc1ccccc1)C(=O)N[C@@H](CCCCN)C(=O)N[C@@H](CCCNC(=N)N)C(=O)N[C@H](C(=O)N[C@H](C(=O)N[C@@H](CCC(N)=O)C(=O)N[C@@H](CCCNC(=N)N)C(=O)N[C@H](C(=O)N[C@@H](CCCCN)C(=O)N[C@@H](CC(=O)O)C(=O)N[C@@H](Cc1ccccc1)C(=O)N[C@@H](CC(C)C)C(=O)N[C@@H](CCCNC(=N)N)C(=O)N[C@@H](CC(N)=O)C(=O)N[C@@H](CC(C)C)C(=O)N[C@H](C(=O)N1CCC[C@H]1C(=O)N[C@@H](CCCNC(=N)N)C(=O)N[C@H](C(=O)N[C@@H](CCC(=O)O)C(=O)N[C@@H](CO)C(=O)O)[C@@H](C)O)C(C)C)[C@@H](C)CC)C(C)C)[C@@H](C)CC [LL-37]		RBC lysis in a concentration-dependent manner				
CC[C@H](C)[C@H](NC(=O)[C@H](CCCCN)NC(=O)[C@H](C)NC(=O)[C@H](CCCCN)NC(=O)[C@H](CO)NC(=O)[C@H](CCCCN)NC(=O)[C@H](CCCNC(=N)N)NC(=O)[C@H](Cc1ccccc1)NC(=O)[C@H](Cc1ccccc1)NC(=O)[C@H](C)NC(=O)CNC(=O)[C@H](CC(C)C)NC(=O)[C@@H](N)CC(C)C)C(=O)NCC(=O)N[C@@H](CCCCN)C(=O)N[C@@H](C)C(=O)N[C@@H](Cc1ccccc1)C(=O)N[C@@H](CCCCN)C(=O)N[C@@H](CCCNC(=N)N)C(=O)N[C@H](C(=O)N[C@H](C(=O)N[C@@H](CCC(N)=O)C(=O)N[C@@H](CCCNC(=N)N)C(=O)N[C@H](C(=O)N[C@@H](CCCCN)C(=O)N[C@@H](C)C(=O)N[C@@H](Cc1ccccc1)C(=O)N[C@@H](CC(C)C)C(=O)N[C@@H](CCCNC(=N)N)C(=O)O)[C@@H](C)CC)C(C)C)[C@@H](C)CC [LL-29V] (H-LLGAFFRKSKAKIGKAFKRIVQRIKAFLR-OH)		comparable levels of RBC lysis as LL-29				
PMAP-37: SEQ ID NO: 8, pig cathelicidin, GLLSRLRDFLSDRGRRLGEKIERIGQKIKDLSEFFQS (listed as Sus scrofa)			more similar to CRAMP			
GLRKKFRETRKEIQKLGEKIGKTGRKVWKDWREYGQIPYPCRI [CAP-11V3]	>32 µg/mL			>32 µg/mL	>32 µg/mL	
GLRKKFRETRKEIQKLGRKIGKTGRKVWKAWREYGQIPYPCRI [CAP-11V2]	>32 µg/mL			>32 µg/mL	>32 µg/mL	
GLRKKFRKTRKRIQKLGRKIGKTGRKVWKAWREYGQIPYPCRI [CAP-11]	>32 µg/mL		retained reduced levels of activation of TLR3 in comparison to LL-37; also recorded: retain partial enhancement of TLR3 signaling	32 µg/mL	32 µg/mL	antibacterial / bacteriocidal activity (in words) [1]: most potent antibacterial activities; also recorded: most effective; number of the 19 Gram-negative strains inhibited [1]: 16 strains
CC[C@H](C)[C@H](NC(=O)[C@H](CCCCN)NC(=O)[C@H](CCC(=O)O)NC(=O)[C@H](CCCCN)NC(=O)[C@H](CO)NC(=O)[C@H](CCCCN)NC(=O)[C@H](CCCNC(=N)N)NC(=O)[C@H](Cc1ccccc1)NC(=O)[C@H](Cc1ccccc1)NC(=O)[C@H](C)NC(=O)CNC(=O)[C@H](CC(C)C)NC(=O)[C@@H](N)CC(C)C)C(=O)NCC(=O)N[C@@H](CCCCN)C(=O)N[C@@H](C)C(=O)N[C@@H](Cc1ccccc1)C(=O)N[C@@H](CCCCN)C(=O)N[C@@H](CCCNC(=N)N)C(=O)N[C@H](C(=O)N[C@H](C(=O)N[C@@H](CCC(N)=O)C(=O)N[C@@H](CCCNC(=N)N)C(=O)N[C@H](C(=O)N[C@@H](CCCCN)C(=O)N[C@@H](CC(=O)O)C(=O)N[C@@H](Cc1ccccc1)C(=O)N[C@@H](CC(C)C)C(=O)N[C@@H](CCCNC(=N)N)C(=O)O)[C@@H](C)CC)C(C)C)[C@@H](C)CC [LL-29V2] (H-LLGAFFRKSKEKIGKAFKRIVQRIKDFLR-OH)		slightly increased RBC lysis				
BMAP-34: SEQ ID NO: 7, cow cathelicidin, GLFRRLRDSIRRGQQKILEKARRIGERIKDIFRG (listed as Bos taurus)			more similar to CRAMP			
RL-37: SEQ ID NO: 2, Rhesus monkey cathelicidin, RLGNFFRKVKEKIGGGLKKVGQKIKDFLGNLVPRTAS (listed as Macaca mulatta)			retain partial enhancement of TLR3 signaling			
CC[C@H](C)[C@H](NC(=O)[C@H](CCCCN)NC(=O)[C@H](CCCNC(=N)N)NC(=O)CNC(=O)[C@H](CC(C)C)NC(=O)[C@H](CCCCN)NC(=O)[C@H](CCC(N)=O)NC(=O)[C@@H](NC(=O)[C@H](CCCNC(=N)N)NC(=O)[C@H](CCCCN)NC(=O)[C@H](CCCNC(=N)N)NC(=O)[C@@H](NC(=O)[C@H](CCCCN)NC(=O)[C@H](CCCNC(=N)N)NC(=O)[C@H](Cc1ccccc1)NC(=O)[C@H](CCCCN)NC(=O)[C@H](CCCCN)NC(=O)[C@H](CCCNC(=N)N)NC(=O)[C@H](CC(C)C)NC(=O)CN)[C@@H](C)O)[C@@H](C)CC)C(=O)NCC(=O)N[C@@H](CCCCN)C(=O)N[C@H](C(=O)NCC(=O)N[C@@H](CCCNC(=N)N)C(=O)N[C@@H](CCCCN)C(=O)N[C@H](C(=O)N[C@@H](Cc1c[nH]c2ccccc12)C(=O)N[C@@H](CCCCN)C(=O)N[C@@H](C)C(=O)N[C@@H](Cc1c[nH]c2ccccc12)C(=O)N[C@@H](CCCNC(=N)N)C(=O)N[C@@H](CCC(=O)O)C(=O)N[C@@H](Cc1ccc(O)cc1)C(=O)O)C(C)C)[C@@H](C)O [CAP-11V1] (H-GLRKKFRKTRKRIQKLGRKIGKTGRKVWKAWREY-OH)	>32 µg/mL	decreased RBC lysis; also recorded: did not result in increased lysis of human RBCs		32 µg/mL (≈ 7.51 µM)	32 µg/mL (≈ 7.51 µM)	
eCATH-3: SEQ ID NO: 9, horse cathelicidin, KRFHSVGSLIQRHQQMIRDKSEATRHGIRIITRPKLLLAS (listed as Equus caballus)			more similar to CRAMP			antibacterial / bacteriocidal activity (in words) [1]: least effective; number of the 19 Gram-negative strains inhibited [1]: did not inhibit the growth of any
